Structures can show the parent of a compound that is named as a salt.
Test system: Erwinia amylovora
Assay: Test for inhibitory activity against Erwinia amylovora (inhibitory zone on CYE medium plates)
Format: cell-based
Details: after 24 hours, read-out: Inhibitory zone diameter
Method: 10 μl of an Erwinia amylovora suspension were plated onto CYE medium at a density of 10^8 cfu/ml. Thereafter, a hole 5 mm in diameter was punched into the center of the plates, and 20 μl of the test solution were introduced. After 24 hours, the inhibitory zone was measured. The reference substance was streptomycin sulfate, and the negative control was tap water.
The product used was an aqueous solution of the preparation according to the invention in the form of granules of formic acid and/or a salt of formic acid, in particular calcium formate, whose content in formic acid and/or a salt of formic acid, in particular calcium formate, was approximately 80% by weight. This preparation was diluted with tap water to give the concentrations stated (based on the granules).

[H]/N=C(/N)N[C@H]1[C@H](O)[C@@H](O)[C@H](O[C@@H]2O[C@@H](C)[C@](O)(C=O)[C@H]2O[C@@H]2O[C@@H](CO)[C@H](O)[C@@H](O)[C@@H]2NC)[C@@H](N/C(N)=N\[H])[C@@H]1O [Streptomycin sulfate, streptomycin sulfate] showed a zone of inhibition at 0.001 % strength (concentration 0.001% by weight) of 16 mm, a zone of inhibition at 0.01 % strength (concentration 0.01% by weight) of 20 mm and a zone of inhibition at 0.1 % strength (concentration 0.1% by weight) of 24 mm.

From patent publication US20130237601A1, “COMPOSITION FOR THE TREATMENT AND/OR PREVENTION OF FIRE BLIGHT” (LANXESS DISTRIBUTION GMBH, priority 2006, published 2013)
